For data set [1], the target named is T1, CCK2R on A431-CCK2R cells (human CCK2R) (Homo sapiens, UniProt P32239).
T1 construct: expressed in transfected cells; host or cells: A431 human epidermoid carcinoma cells, stably transfected (provided by Dr. Luigi Aloj)
T1 sequence (P32239 1-447): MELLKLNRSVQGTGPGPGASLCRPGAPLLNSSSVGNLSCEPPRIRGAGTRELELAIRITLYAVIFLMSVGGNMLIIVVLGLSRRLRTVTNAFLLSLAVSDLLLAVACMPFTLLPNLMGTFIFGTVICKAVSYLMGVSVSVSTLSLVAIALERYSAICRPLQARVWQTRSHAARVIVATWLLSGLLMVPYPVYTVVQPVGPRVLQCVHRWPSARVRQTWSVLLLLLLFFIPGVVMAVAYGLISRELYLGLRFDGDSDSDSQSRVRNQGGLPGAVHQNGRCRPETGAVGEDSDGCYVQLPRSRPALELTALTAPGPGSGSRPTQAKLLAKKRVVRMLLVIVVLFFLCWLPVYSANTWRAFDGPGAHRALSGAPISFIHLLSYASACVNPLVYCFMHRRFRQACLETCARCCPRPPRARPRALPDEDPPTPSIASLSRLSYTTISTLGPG
Put plainly: Receptor affinity competition assay against [125I][3-iodo-Tyr12,Leu15]gastrin-I. It is filed as binding. The note with it: competition against [125I][3-iodo-Tyr12,Leu15]gastrin-I on A431-CCK2R cells, 1 h at RT; n = 3 (Ga-DOTA-MGS5 n = 1).
Protocol: A431-CCK2R and A431-mock cells were cultured in Dulbecco’s Modified Eagle Medium (DMEM) and AR42J cells were cultured in RPMI-1640 medium, both supplemented with 10% (v/v) fetal bovine serum and 5 mL of a 100x penicillin–streptomycin–glutamine mixture at 37 °C in a humidified 95% air/5% CO2 atmosphere. Media and supplements were purchased from Invitrogen Corporation (Lofer, Austria).
Binding assays on A431-CCK2R cells were carried out as previously described [37]. The cells were incubated with increasing concentrations of the peptide conjugates and [^125I][3-iodo-Tyr^12,Leu^15]gastrin-I (~20,000 cpm) for 1 h at RT. Half-maximum inhibitory concentration (IC50) values were calculated after nonlinear regression using Origin software (Microcal Origin 6.1, Northampton, MA, USA).

A short description of data set [2]: 14-day extended single-dose intravenous toxicity study in rats. The data set is classed as in vivo. The method, then: In the preclinical evaluation of the safety profile of DOTA-MGS5, a targeted approach was followed for the 14-day extended single-dose toxicity study conducted in male Wistar rats. Instead of performing the study in animals of both sexes at a single dose level, the non-clinical evaluation was confined to male animals, including, however, three different dose levels based on mg/kg scaling and body surface scaling (applying a factor of 6.2). Considering a maximum dose of 50 µg administered to patients and an exposure margin of 100-fold the clinical dose, a dose level of 0.5 mg/kg body weight was calculated for the study and used as medium dose. Two additional dose levels of 0.1 mg/kg body weight and 2.5 mg/kg body weight were selected to allow a more accurate evaluation of the safety profile. Based on the preclinical biodistribution studies, the stomach, pancreas, and kidneys were identified as the main target organs. In addition to these organs, the liver and colon as potential additional routes of excretion, as well as spleen and sternum (including bone marrow), were also included in the histopathological evaluation.
A NOAEL (no observed adverse effect level) of 2.5 mg/kg body weight was established from the study for the single administration of DOTA-MGS5. When considering body surface scaling from rats to humans, the NOAEL of 2.5 mg/kg body weight translates to a HED (human equivalent dose) of 0.4 mg/kg body weight. By applying a safety factor of 100, a maximum dose of 4 µg/kg body weight was established for human subjects receiving the initial clinical dose. For the first PET/CT examinations with ^68Ga-DOTA-MGS5, a maximum dose of 50 µg could be established as clinical dose, which remains well below the maximum dose of 4 µg/kg body weight.
The safety of the intravenous injection was tested for unlabeled DOTA-MGS5 in a GLP-compliant 14-day extended single-dose intravenous toxicity study in rats using the intravenous route of administration. The study was designed following a targeted microdose approach based on the ICH guideline M3 (R2) on non-clinical safety studies for the conduct of human clinical trials and marketing authorization for pharmaceuticals (EMA/CPMP/ICH/286/1995, December 2009), as well as the draft guideline on the non-clinical requirements for radiopharmaceuticals (EMA/CHMP/SWP/686140/2018, 15 November 2018). The study was conducted in a GLP-compliant laboratory (BSL BIOSERVICE Scientific Laboratories Munich GmbH, Planegg/Munich, Germany) using 60 6–7-week-old male healthy Wistar rats (Crl: WI(Han), Full Barrier, Charles River, Sulzfeld, Germany). […] Body weight and food consumption was determined on a weekly basis. […]

Data set [3] is described as follows: in vivo. The conditions noted are these: female, BALB/c, mouse, iv, 20 pmol peptide. The method, then: The biodistribution profile of ^68Ga-DOTA-MGS5 in female BALB/c mice was evaluated for the time points of 5, 20, 60, and 90 min post injection (p.i.).
Biodistribution studies evaluating the pharmacokinetics and tissue distribution of ^68Ga-DOTA-MGS5 were performed in 6-week-old female BALB/c mice (n = 12). Groups of three mice for each time point were injected intravenously via a lateral tail vein with ~1 MBq of ^68Ga-DOTA-MGS5 corresponding to 20 pmol peptide. The mice were euthanized by cervical dislocation 5, 20, 60, and 90 min after injection and different tissues (blood, lung, heart, muscle, spleen, intestine, liver, kidneys, pancreas, stomach, and femur) were removed, weighed, and their radioactivity measured in a gamma-counter together with a standard and the residual body. Results were expressed as percentage of injected activity per organ (% IA) and per gram tissue (% IA/g).

Data set [4] deals with T2, AR42J cells with physiological expression of rat CCK2R (Rattus norvegicus, UniProt P30553).
T2 construct: In AR42J cells with physiological expression of rat CCK2R; host or cells: AR42J rat pancreatic tumor cells
T2 sequence (P30553 1-452): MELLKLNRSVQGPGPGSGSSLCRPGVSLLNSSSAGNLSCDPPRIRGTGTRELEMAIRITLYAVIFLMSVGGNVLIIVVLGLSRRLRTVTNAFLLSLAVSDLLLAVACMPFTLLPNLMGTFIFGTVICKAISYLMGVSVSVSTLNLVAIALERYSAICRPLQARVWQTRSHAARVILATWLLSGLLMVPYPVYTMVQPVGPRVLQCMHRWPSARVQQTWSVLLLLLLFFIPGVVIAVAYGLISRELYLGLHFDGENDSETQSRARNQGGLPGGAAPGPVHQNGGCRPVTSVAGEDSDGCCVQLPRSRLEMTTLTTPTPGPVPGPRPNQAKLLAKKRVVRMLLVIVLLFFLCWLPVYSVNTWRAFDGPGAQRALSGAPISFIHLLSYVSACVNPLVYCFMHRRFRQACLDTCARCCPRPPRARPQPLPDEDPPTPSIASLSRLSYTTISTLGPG
The note with it: 4 h after incubation; cited from earlier work.

The target in data set [5] is T3, A431-CCK2R cells (human CCK2R) (Homo sapiens, UniProt P32239).
T3 construct: expressed in transfected cells; host or cells: A431 human epidermoid carcinoma cells, stably transfected (provided by Dr. Luigi Aloj)
T3 sequence (P32239 1-447): T1 sequence (P32239 1-447)
The conditions noted are these: 1 h incubation; cited from earlier work. The method, then:
For the time point of 1 h incubation, a cell internalization of ~20% was reported for ^177Lu-DOTA-PP-F11N in A431-CCK2R cells.

Where [6] appears, read: total radioactivity, uptake in blood.
The mark [7] stands for this setting: total radioactivity, uptake in femur.
The mark [8] stands for this setting: total radioactivity, uptake in heart.
Where [9] appears, read: total radioactivity, uptake in intestine.
Where [10] appears, read: total radioactivity, uptake in kidneys.
Where [11] appears, read: total radioactivity, uptake in liver.
[12] abbreviates: total radioactivity, uptake in lung.
Setting [13] is: total radioactivity, uptake in muscle.
Where [14] appears, read: total radioactivity, uptake in pancreas.
Where [15] appears, read: total radioactivity, uptake in spleen.
[16] abbreviates: total radioactivity, uptake in stomach.

For `CCCC[C@@H](C(=O)N[C@@H](CC(=O)O)C(=O)N[C@@H](Cc1cccc2ccccc12)C(N)=O)N(C)C(=O)[C@H](Cc1c[nH]c2ccccc12)NC(=O)CNC(=O)[C@H](Cc1ccc(O)cc1)NC(=O)[C@H](C)NC(=O)[C@@H](CCC(=O)O)NC(=O)CN1CCN(CC(=O)O)CCN(CC(=O)O)CCN(CC(=O)O)CC1` [DOTA-MGS5, DOTA-DGlu-Ala-Tyr-Gly-Trp-(N-Me)Nle-Asp-1-Nal-NH2], the IC50 (commonly the point on the concentration scale where inhibition reaches its midpoint) in data set [1] was 0.5 ± 0.1 nM. Moreover, in data set [2] (i.v. 0.1, 0.5 and 2.5 mg/kg BW, male Wistar rats, until end of observation periods (2 and 14 days)), the “treatment-related mortality or clinical symptoms” value is “no treatment-related mortality or clinical symptoms occurred”. Moreover, in data set [2] (rat, in vivo), the “HED (human equivalent dose)” value was found to be 0.4 mg/kg body weight and the “maximum dose for human subjects receiving the initial clinical dose” value was 4 µg/kg body weight.

On to `CCCC[C@@H](C(=O)N[C@@H](CC(=O)O)C(=O)N[C@@H](Cc1cccc2ccccc12)C(N)=O)N(C)C(=O)[C@H](Cc1c[nH]c2ccccc12)NC(=O)CNC(=O)[C@H](Cc1ccc(O)cc1)NC(=O)[C@H](C)NC(=O)[C@@H](CCC(=O)O)NC(=O)CN1CCN(CC(=O)O)CCN(CC(=O)O)CCN(CC(=O)O)CC1` [^68Ga-DOTA-MGS5, metal not drawn], for which the uptake in blood in data set [3] (1.5 h) came out at 0.94 ± 0.08 % IA/g. Besides, the tissue uptake dose at 5 min in data set [3] (total radioactivity) came to 81.8 ± 2.5 %ID. The tissue uptake dose at 1.5 h in data set [3] (total radioactivity) was 11.4 ± 1.7 %ID. In addition, the tissue uptake (usually the share of the injected amount in each gram of the tissue) at 5 min turned out to be 17.6 ± 3.01 %ID/g in data set [3] (setting [6]); 2.77 ± 0.34 %ID/g in data set [3] (setting [7]); 5.11 ± 0.07 %ID/g in data set [3] (setting [8]); 2.42 ± 0.21 %ID/g in data set [3] (setting [9]); 17.6 ± 2.79 %ID/g in data set [3] (setting [10]); 5.02 ± 0.06 %ID/g in data set [3] (setting [11]). In addition, the tissue uptake at 5 min turned out to be 8.51 ± 2.33 %ID/g in data set [3] (setting [12]); 2.89 ± 0.18 %ID/g in data set [3] (setting [13]); 4.03 ± 0.19 %ID/g in data set [3] (setting [14]); 3.53 ± 0.43 %ID/g in data set [3] (setting [15]); 6.63 ± 0.23 %ID/g in data set [3] (setting [16]). In addition, the tissue uptake at 20 min in data set [3] (setting [6]) is 6.76 ± 1.17 %ID/g; in data set [3] (setting [7]), 1.75 ± 0.93 %ID/g; in data set [3] (setting [8]), 2.24 ± 0.57 %ID/g; in data set [3] (setting [9]), 1.22 ± 0.25 %ID/g; in data set [3] (setting [10]), 8.41 ± 1.33 %ID/g; in data set [3] (setting [11]), 2.28 ± 0.31 %ID/g. Also, the tissue uptake at 20 min in data set [3] (setting [12]) was 3.78 ± 0.53 %ID/g; in data set [3] (setting [13]) it was 1.03 ± 0.21 %ID/g; in data set [3] (setting [14]), 2.17 ± 0.16 %ID/g; in data set [3] (setting [15]) it was 1.7 ± 0.38 %ID/g; in data set [3] (setting [16]), 4.09 ± 0.98 %ID/g. Also, the tissue uptake at 1 h turned out to be 1.99 ± 0.22 %ID/g in data set [3] (setting [6]); 0.62 ± 0.09 %ID/g in data set [3] (setting [7]); 0.7 ± 0.16 %ID/g in data set [3] (setting [8]); 0.75 ± 0.17 %ID/g in data set [3] (setting [9]); 5.11 ± 0.33 %ID/g in data set [3] (setting [10]); 1.21 ± 0.12 %ID/g in data set [3] (setting [11]). For the same compound, the tissue uptake at 1 h in data set [3] (setting [12]) is 1.1 ± 0.11 %ID/g; in data set [3] (setting [13]), 0.49 ± 0.19 %ID/g; in data set [3] (setting [14]), 1.5 ± 0.38 %ID/g; in data set [3] (setting [15]), 0.71 ± 0.05 %ID/g; in data set [3] (setting [16]), 4.63 ± 0.65 %ID/g. The tissue uptake at 1.5 h in data set [3] (setting [6]) was 0.9 ± 0.1 %ID/g; in data set [3] (setting [7]), 0.55 ± 0.09 %ID/g; in data set [3] (setting [8]), 0.35 ± 0.02 %ID/g; in data set [3] (setting [9]) it was 0.62 ± 0.08 %ID/g; in data set [3] (setting [10]), 4.6 ± 0.32 %ID/g; in data set [3] (setting [11]), 1 ± 0.06 %ID/g. Besides, the tissue uptake at 1.5 h was found to be 0.59 ± 0.1 %ID/g in data set [3] (setting [12]); 0.18 ± 0.04 %ID/g in data set [3] (setting [13]); 1.42 ± 0.3 %ID/g in data set [3] (setting [14]); 0.69 ± 0.09 %ID/g in data set [3] (setting [15]); 4.12 ± 0.3 %ID/g in data set [3] (setting [16]). Besides, in data set [2] (rat, in vivo), the “maximum dose established as clinical dose” value amounted to 50 µg.

As for “DOTA-(DGlu)6-Ala-Tyr-Gly-Trp-Met-Asp-Phe-NH2 [^111In-CP04, minigastrin analog radiolabeled with indium-111, in clinical studies]”, the cell uptake in data set [4] is 14.4 ± 0.8%.

With “DOTA-(DGlu)6-Ala-Tyr-Gly-Trp-Nle-Asp-Phe-NH2 [^177Lu-DOTA-PP-F11N, minigastrin analog radiolabeled with lutetium-177, in clinical studies]”, the cell internalization in data set [5] is listed as ~ 20%.

In data set [1], “Ga-DOTA-MGS5: DOTA-MGS5 labeled with the stable isotope of gallium, reference standard” came in with an IC50 of 0.5 ± 0.1 nM.

The values are drawn from article PMC8235783, “Radiopharmaceutical Formulation and Preclinical Testing of ^68Ga-Labeled DOTA-MGS5 for the Regulatory Approval of a First Exploratory Clinical Trial” (Pharmaceuticals, 2021).
